Measured values: patent US8779142B2, “Azabicyclo compound and salt thereof” (Taiho Pharmaceutical Co., Ltd., priority 2009, dated 2014)
Where two headings read alike, the source gives them in different places.

Tests used:
[1] = molecular target: human HSP90 alpha protein (HSP90 N-terminal protein, amino acids 2-236) (Homo sapiens (Human), UniProt P07900); assay: Measurement of HSP90-binding activity (AlphaScreen competitive assay, biotin-labeled geldanamycin); conditions: read-out: HSP-binding activity IC50
SK-BR-3 cells = assay: Measurement of cell growth inhibition (crystal violet staining method); type: cell-based
[2] = concentration inhibiting binding of biotin-labeled geldanamycin (40 nM) to purified HSP90 to 50% of control
[3] = Homo sapiens, breast cancer SK-BR-3 cells, 72 hr culture with test substance

| Molecule | IC50 [1, 2] [µM] | IC50 (SK-BR-3 cells; [3]) [µM] | IC50 (SK-BR-3 cells; breast cancer SK-BR-3 cells, 72 hr culture with test substance) [µM] | IC50 [1] [µM] | IC50 (SK-BR-3 cells) [µM] |
| --- | --- | --- | --- | --- | --- |
| CC(C)c1nn(-c2ccc(C(N)=O)c(N(O)C3CCCCC3)c2)c2nccc(-n3cnc(-c4cnn(C)c4)c3)c12 [Example 89, 2-(Hydroxycyclohexylamino)-4-{3-isopropyl-4-(4-(1-methyl-1H-pyrazol-4-yl)-1H-imidazol-1-yl)-1H-pyrazolo[3,4-b]pyridin-1-yl}benzamide] | 0.07 | 0.01 |  |  |  |
| 2-(Trans-4-methylsulfonamidocyclohexylamino)-4-{3-methyl-4-(quinolin-3-yl)-1H-pyrrolo[2,3-b]pyridin-1-yl}benzamide [Example 63] |  |  |  | 0.47 | 0.17 |
| Cn1cc(-c2cn(-c3ccnc4c3c(C(F)(F)F)nn4-c3ccc(C(N)=O)cc3F)cn2)cn1 [Example 171, 3-Fluoro-4-{4-(4-(1-methyl-1H-pyrazol-4-yl)-1H-imidazol-1-yl)-3-(trifluoromethyl)-1H-pyrazolo[3,4-b]pyridin-1-yl}benzamide] | 0.1 | 0.13 |  |  |  |
| CC(C)c1nn(-c2ccc(C(N)=O)c(NCC(F)(F)F)c2)c2nccc(-n3cnc(-c4cnn(C)c4)c3)c12 [Example 114, 4-{3-Isopropyl-4-(4-(1-methyl-1H-pyrazol-4-yl)-1H-imidazol-1-yl)-1H-pyrazolo[3,4-b]pyridin-1-yl}-2-(2,2,2-trifluoroethylamino)benzamide] | 0.49 | 0.18 |  |  |  |
| CC(C)c1nn(-c2ccc(C(N)=O)c(NCc3ccccc3)c2)c2nccc(-c3cnc4ccccc4c3)c12 [Example 20, 2-(Benzylamino)-4-{3-isopropyl-4-(quinolin-3-yl)-1H-pyrazolo[3,4-b]pyridin-1-yl}benzamide] | 3.05 | 0.67 |  |  |  |
| Cc1cc(C(N)=O)ccc1-n1nc(C(F)(F)F)c2c(-c3cnc4ccccc4c3)ccnc21 [Example 82, 3-Methyl-4-{4-(quinolin-3-yl)-3-(trifluoromethyl)-1H-pyrazolo[3,4-b]pyridin-1-yl}benzamide] | 0.83 | 0.23 |  |  |  |
| CC(C)c1nn(-c2ccc(C(N)=O)c(N[C@H]3CC[C@H](O)CC3)c2)c2nccc(-c3cccnc3)c12 [Example 7, 2-(Trans-4-hydroxycyclohexylamino)-4-{3-isopropyl-4-(pyridin-3-yl)-1H-pyrazolo[3,4-b]pyridin-1-yl}benzamide] | 0.34 | 0.23 |  |  |  |
| CC(C)c1nn(-c2ccc(C(N)=O)cc2CN2CCOCC2)c2nccc(-n3cnc(-c4cnn(C)c4)c3)c12 [Example 127, 4-{3-Isopropyl-4-(4-(1-methyl-1H-pyrazol-4-yl)-1H-imidazol-1-yl)-1H-pyrazolo[3,4-b]pyridin-1-yl}-3-(morpholinomethyl)benzamide] | 0.23 | 1.56 |  |  |  |
| 4-{4-(4-(1-(Hydroxyethyl)-1H-pyrazol-4-yl)-1H-imidazol-1-yl)-3-isopropyl-1H-pyrazolo[3,4-b]pyridin-1-yl}-2-(isopropyl)benzamide [Example 148] |  |  |  | 0.4 | 0.24 |
| CC(C)c1nn(-c2ccc(C(N)=O)c(N)c2)c2nccc(-n3cnc(-c4cnn(C)c4)c3)c12 [Example 106, 2-Amino-4-{3-isopropyl-4-(4-(1-methyl-1H-pyrazol-4-yl)-1H-imidazol-1-yl)-1H-pyrazolo[3,4-b]pyridin-1-yl}benzamide] | 0.34 | 0.65 |  |  |  |
| CCc1nn(-c2ccc(C(N)=O)c(N[C@H]3CC[C@H](O)CC3)c2)c2nccc(-c3cnc4ccccc4c3)c12 [Example 3, 2-(Trans-4-hydroxycyclohexylamino)-4-{4-(quinolin-3-yl)-3-ethyl-1H-pyrazolo[3,4-b]pyridin-1-yl}benzamide] | 0.17 | 0.02 |  |  |  |
| CCc1cn(-c2ccc(C(N)=O)c(N[C@H]3CC[C@H](O)CC3)c2)c2nccc(-c3cnc4ccccc4c3)c12 [Example 41, 4-{3-Ethyl-4-(quinolin-3-yl)-1H-pyrrolo[2,3-b]pyridin-1-yl}-2-(trans-4-hydroxycyclohexylamino)benzamide] | 0.12 | 0.03 |  |  |  |

More lines, in order of falling IC50 [1, 2], values ahead:

| IC50 [1, 2] [µM] | IC50 (SK-BR-3 cells; [3]) [µM] | IC50 (SK-BR-3 cells; breast cancer SK-BR-3 cells, 72 hr culture with test substance) [µM] | Molecule | IC50 [1] [µM] | IC50 (SK-BR-3 cells) [µM] |
| --- | --- | --- | --- | --- | --- |
| 1.01 | 1.28 |  | CC(C)c1nn(-c2ccc(C(N)=O)cc2Cl)c2nccc(-n3cnc(-c4ccc(C(N)=O)cc4)c3)c12 [Example 152, 4-{4-(4-(4-Carbamoylphenyl)-1H-imidazol-1-yl)-3-isopropyl-1H-pyrazolo[3,4-b]pyridin-1-yl}-3-chlorobenzamide] |  |  |
| 0.8 | 1.93 |  | CC(C)n1cc(-c2cn(-c3ccnc4c3c(C(F)(F)F)nn4-c3ccc(C(N)=O)cc3N)cn2)cn1 [Example 186, 3-Amino-4-{4-(4-(1-isopropyl-1H-pyrazol-4-yl)-1H-imidazol-1-yl)-3-(trifluoromethyl)-1H-pyrazolo[3,4-b]pyridin-1-yl}benzamide] |  |  |
| 0.59 | 0.36 |  | CCc1cn(-c2ccc(C(N)=O)c(NCCN3CCOCC3)c2)c2nccc(-c3cnc4ccccc4c3)c12 [Example 73, 4-{3-Ethyl-4-(quinolin-3-yl)-1H-pyrrolo[2,3-b]pyridin-1-yl}-2-(2-morpholinoethylamino)benzamide] |  |  |
| 0.55 | 0.16 |  | COc1cncc(-c2ccnc3c2c(C(C)C)nn3-c2ccc(C(N)=O)c(N[C@H]3CC[C@H](O)CC3)c2)c1 [Example 11, 2-(Trans-4-hydroxycyclohexylamino)-4-{3-isopropyl-4-(5-methoxypyridin-3-yl)-1H-pyrazolo[3,4-b]pyridin-1-yl}benzamide] |  |  |
| 0.47 | 0.29 |  | Cc1cc(C(N)=O)ccc1-n1nc(C(C)C)c2c(-c3cnc4ccccc4c3)ccnc21 [Example 80, 4-{3-Isopropyl-4-(quinolin-3-yl)-1H-pyrazolo[3,4-b]pyridin-1-yl}-3-methylbenzamide] |  |  |
| 0.43 | 0.15 |  | CC(C)c1nn(-c2ccc(C(N)=O)c(N[C@H]3CC[C@H](O)CC3)c2)c2nccc(-c3cnc4[nH]ccc4c3)c12 [Example 13, 2-(Trans-4-hydroxycyclohexylamino)-4-{3-isopropyl-4-(1H-pyrrolo[2,3-b]pyridin-5-yl)-1H-pyrazolo[3,4-b]pyridin-1-yl}benzamide] |  |  |
| 0.38 | 0.07 |  | CC(C)Nc1cc(-n2nc(C(F)(F)F)c3c(-n4cnc(-c5cccnc5)c4)ccnc32)ccc1C(N)=O [Example 179, 2-(Isopropylamino)-4-{4-(4-(pyridin-3-yl)-1H-imidazol-1-yl)-3-(trifluoromethyl)-1H-pyrazolo[3,4-b]pyridin-1-yl}benzamide] |  |  |
| 0.36 | 0.65 |  | CC(C)c1nn(-c2ccc(C(N)=O)c(NC3CCN(C(=O)c4cc(O)nc(O)n4)CC3)c2)c2nccc(-c3cnc4ccccc4c3)c12 [Example 78, 2-{1-(2,6-Dihydroxypyrimidine-4-carbonyl)piperidin-4-ylamino}-4-{3-isopropyl-4-(quinolin-3-yl)-1H-pyrazolo[3,4-b]pyridin-1-yl}benzamide] |  |  |
| 0.24 | 0.07 |  | Cc1cn(-c2ccc(C(N)=O)c(NC3CCC(O)CC3)c2)c2nccc(-n3cnc(-c4ccccc4)c3)c12 (stereo not shown) [Example 97, 2-(4-Hydroxycyclohexylamino)-4-{3-methyl-4-(4-phenyl-1H-imidazol-1-yl)-1H-pyrrolo[2,3-b]pyridin-1-yl}benzamide] |  |  |
| 0.19 | 0.21 |  | CCNc1cc(C(N)=O)ccc1-n1nc(C(F)(F)F)c2c(-n3cnc(-c4cnn(CC)c4)c3)ccnc21 [Example 185, 4-{4-(4-(1-Ethyl-1H-pyrazol-4-yl)-1H-imidazol-1-yl)-3-(trifluoromethyl)-1H-pyrazolo[3,4-b]pyridin-1-yl}-3-(ethylamino)benzamide] |  |  |
| 0.18 | 0.16 |  | CCNc1cc(C(N)=O)ccc1-n1nc(C(C)C)c2c(-n3cnc(-c4cnn(C)c4)c3)ccnc21 [Example 121, 3-(Ethylamino)-4-{3-isopropyl-4-(4-(1-methyl-1H-pyrazol-4-yl)-1H-imidazol-1-yl)-1H-pyrazolo[3,4-b]pyridin-1-yl}benzamide] |  |  |
| 0.16 | 0.24 |  | CC(C)c1nn(-c2ccc(C(N)=O)c(NCCN3CCCC3)c2)c2nccc(-n3cnc(-c4cnn(C)c4)c3)c12 [Example 115, 4-{3-Isopropyl-4-(4-(1-methyl-1H-pyrazol-4-yl)-1H-imidazol-1-yl)-1H-pyrazolo[3,4-b]pyridin-1-yl}-2-{2-(pyrrolidin-1-yl)ethylamino}benzamide] |  |  |
| 0.13 | 0.24 |  | Cn1cc(-c2cn(-c3ccnc4c3c(C(F)(F)F)nn4-c3ccc(C(N)=O)cc3Cl)cn2)cn1 [Example 153, 3-Chloro-4-{4-(4-(1-methyl-1H-pyrazol-4-yl)-1H-imidazol-1-yl)-3-(trifluoromethyl)-1H-pyrazolo[3,4-b]pyridin-1-yl}benzamide] |  |  |
| 0.13 | 0.27 |  | CCc1cc(C(N)=O)ccc1-n1nc(C(C)C)c2c(-n3cnc(-c4cccnc4)c3)ccnc21 [Example 136, 3-Ethyl-4-{3-isopropyl-4-(4-(pyridin-3-yl)-1H-imidazol-1-yl)-1H-pyrazolo[3,4-b]pyridin-1-yl}benzamide] |  |  |
| 0.12 | 0.02 |  | NC(=O)c1ccc(-n2nc(C(F)(F)F)c3c(-c4cnc5ccccc5c4)ccnc32)cc1N[C@H]1CC[C@H](O)CC1 [Example 1, 2-(Trans-4-hydroxycyclohexylamino)-4-{4-(quinolin-3-yl)-3-(trifluoromethyl)-1H-pyrazolo[3,4-b]pyridin-1-yl}benzamide] |  |  |
| 0.11 | 0.04 |  | CCc1cc(C(N)=O)ccc1-n1nc(C(F)(F)F)c2c(-n3cnc(-c4cnn(C)c4)c3)ccnc21 [Example 155, 3-Ethyl-4-{4-(4-(1-methyl-1H-pyrazol-4-yl)-1H-imidazol-1-yl)-3-(trifluoromethyl)-1H-pyrazolo[3,4-b]pyridin-1-yl}benzamide] |  |  |
| 0.06 |  | 0.06 | CC(C)c1nn(-c2ccc(C(N)=O)c(NC3CCC(O)CC3)c2)c2nccc(-n3cnc(-c4cnn(CO)c4)c3)c12 (stereo not shown) [Example 96, 2-(4-Hydroxycyclohexylamino)-4-{4-(4-(1-hydroxymethyl)-(1H-pyrazol-4-yl)-1H-imidazol-1-yl)-3-isopropyl-1H-pyrazolo[3,4-b]pyridin-1-yl}benzamide] |  |  |
